Data on two compounds can be found in patent publication US10231958B2, “Methods and compositions for enhancing chemotherapy” (THE BOARD OF REGENTS OF THE UNIVERSITY OF TEXAS SYSTEM, priority 2015, dated 2019).

In experiment [1] the test system is Kc167 cells, MEFs, and MDA-MB231 breast cancer cells. In words: Cell viability (CellTiter-Glo). It counts as cell-based, D. melanogaster, mouse, human. Conditions: Drosophila melanogaster, MDA-MB-231, 24 h. As to the method:
The D. melanogaster embryonic cell line Kc167 was grown in Schneider medium (Invitrogen, Carlsbad, Calif.) supplemented with 10% heat-inactivated (56° C./30 min) fetal bovine serum (FBS), penicillin and streptomycin at 22° C. in a humidified incubator. Primary MEFs were obtained by harvesting 14.5-day C57BL/6J embryos as previously described (Ravi et al., 2009, PLoS Genet 5, e1000527). Briefly, fetal liver and head were removed and the remainder of the embryo was mechanically disaggregated in plating medium. A suspension of single-cells was plated in DMEM (plus 10% FBS, 100 U/mL penicillin and 100 μg/mL streptomycin). MEFs were grown for two passages before freezing aliquots. Aliquots were taken and expanded as needed for each experiment. MDA-MB231, SkBr3 and MCF-7 breast cancer cells lines were obtained from ATCC and grown in DMEM supplemented with 10% inactivated FBS plus antibiotics in a 37° C. humidified incubator at […] atmosphere. Cells were kept and treated in the exponential phase of growing (60-70% confluence). […] DMSO concentrations were kept to a maximum of 0.1% for all experiments. Cell viability was assessed using CellTiter-Glo Luminescent Viability assay (Promega) in 384 or 96-well plates white-border clear-bottom plated cells. For caspase-3/7 activity, Caspase-Glo 3/7 Assay kits were used (Promega). For caspase assays, the cells were seeded in 96-well plates and assayed directly after treatments. Caspase-3/7 inhibitor (Z-DEVD-fmk) was used to ensure assay specificity. LDH release into culture medium was quantified by Cytotox-96 Non-Radioactive assay kit in agreement with instructions (Promega).

Experiment [2] concerns Intracellular glutathione levels. In words: Glutathione assay. It counts as cell-based. The method, then:
Intracellular glutathione levels were measured using the Glutathione (GSH/GSSG/Total) Fluorometric Assay Kit (BioVision Incorporated, Calif.), following manufacturer protocol. Briefly, 1×10^6 cells were scraped in PBS and centrifuged. Pellets were resuspended in 100 μL Glutathione assay buffer. 60 μL of this homogenate was mixed with PCA (perchloric acid) and centrifuged. Supernatant containing small molecules including GSH were neutralized with KOH and 3 fractions were collected and separated to analyze reduced (GSH), oxidized (GSSG) and total glutathione forms (GSH+GSSG) by reaction with OPA probe (o-phthalaldehyde) in the presence or absence of GSH quencher or reducing agents depending on the compound to be determined. Fluorescence was monitored at Ex/Em=340/420 nm for 40 min. Glutathione forms were calculated and normalized by protein (Bradford's assay).

Another experiment has as its system Kc167 cells. Description: Metabolomics of GSH metabolites in fly cells. It is filed as cell-based, D. melanogaster. Conditions: MMS 40 μg/mL. As to the method: (§1) The 2.4×10^6 Kc167 or 2×10^6 MEFs were seeded using complete growth medium on Day 0 in a T-175 cell culture flask and were allowed to grow for three days. After treatments with MMS (40 μg/mL), cells were harvested and centrifuged at 8 and 24 hours, and washed using ice-cold PBS. The cell numbers were adjusted to 90×10^6 (Kc167) or 24×10^6 (MEF) and provided as 100 μL of packed cell pellet for metabolic profiling. Metabolomic profiling and data analysis was provided through mView service performed by Metabolon Inc., Durham, N.C. Five biological replicates of each group were used for analysis at each time point. In addition, detailed changes in nucleotide pools were measured in a separate set of experiments. Nucleotide quantification and Metabolomics Pathway Enrichment Analyses were performed through MetaboAnalyst 2.0 (Xia et al., 2012, Nucleic Acids Res 40(Web Server issue), W127-33; Xia et al., 2009, Nucleic Acids Res 37(Web Server issue), W652-60).

The test system of experiment [3] is MEFs. In words: Metabolomics of GSH metabolites in MEFs. It is filed as cell-based, mouse. Conditions: MMS 40 μg/mL. As to the method:
as §1

Experiment [4] relates to MEFs. Description: Gene expression microarray in MEFs. It counts as cell-based, mouse. Conditions: 24 h. As to the method: For microarray, 7.5×10^6 Kc167 Drosophila cells or 5×10^6 wild-type MEFs were seeded in T-75 cell culture flask in complete growth medium one day before treatments. On the following day, the medium was replenished with fresh growth medium or medium consisting of MMS at 40 μg/mL. Cells were harvested and pelleted at different times post treatment (0, 1, 8, 24 and 72 h), washed using ice cold phosphate buffered saline (PBS) and the RNA was extracted using the RNeasy kit protocol (Qiagen). RNA integrity was assessed by denaturing formaldehyde agarose gel electrophoresis or by microanalysis (Agilent Bioanalyzer, Santa Clara, Calif.). Microarray service was provided by Expression Analysis Inc., Durham, N.C. Affymetrix GeneChip Drosophila Genome 2.0 Array was used for the experiment performed using Kc167 cells, and Affymetrix GeneChip Mouse Genome 430A 2.0 Array was used for experiment performed using MEFs. The microarray service provided by Expression Analysis Inc., included group comparison between experimental control and MMS treatment and time course analysis based on permutation analysis of differential expression (PADE). For statistical comparison, each experiment was performed in quadruplicate.

For the next experiment, the system named is MDA-MB231 cells. In words: Extracellular matrix invasion assay (Boyden chamber). It is filed as cell-based, human. Conditions: CM from sorafenib or sorafenib plus MMS/4-HC vs CM from MMS or 4-HC alone. As to the method:
Quantification of MMP1 and MMP3 content in culture medium was assessed using RayBio-MMP3 and RayBio-MMP1 Elisa Kit (RayBiotech, Inc); IL8 was analyzed by Human IL-8 Elisa kit (Pierce Biotechnology). The levels of prostaglandin E2 (PGE2) were determined using the Prostaglandin E2 EIA Kit Monoclonal (Cayman Chemical Company). Culture media were diluted to fit within the standard curves. For conditioned media (CM) preparation for invasion and in vitro angiogenesis experiments, 12-well plated cells were treated with MMS (or MMS plus inhibitors) for 8 h in the presence of 10% FBS, twice washed with HBSS, and incubated with 700 μL drug/serum-free fresh medium for additional 12 h. Thereafter, the conditioned fresh medium was collected and directly used for migration and invasion experiments in order to reduce freezing associated loss of activity.
The invasion potential of breast cancer cells was estimated using the QCM™ 24-Well Cell Invasion Assay Fluorimetric (Millipore). Serum starved cells were trypsinized, trypsin-inhibited, centrifuged, resuspended to 5000 cells/μL, and 50 μL of this suspension (250,000 cells) was seeded on 8 μm pore size inserts coated with extracellular matrix in serum-free conditions. Afterwards, 200 μL conditioned (CM) or fresh medium without serum was added to top chambers. The bottom chamber consisted of 500 μL of DMEM supplemented with 10% FBS as chemoattractant. Cells were allowed to migrate for 24 h at 37° C. under 5% CO2. Invaded cells were detached from the bottom side of the insert, lysed and incubated with CyQuant GR fluorescent Dye for 15 min. Fluorescence was read at Ex/Em=480/520 nm. Percentage of invading cells was compared to cell number standard curves.

Converted amounts (≈) assume the structure as drawn.

Turning to `COS(C)(=O)=O` [MMS, methyl-methanesulfonate], it took 80 µg/mL (≈ 726 µM) to reach the 90% level in experiment [1] (IC90). Also, in experiment [2] (higher levels of MMS, as early as 8 h), the glutathione metabolites result is recorded as “depleted glutathione metabolites”. Also, the “total GSH” value in experiment [2] (lower levels of MMS (40 μg/mL)) is given as “able to keep or even increase their total GSH”. For the same compound, the “increase in methyl-GSH” value with Kc167 cells came out at 300 fold; with MEFs [3], 100 fold. Besides, the “up-regulation of CAT expression” value with MEFs [4] is given as 2.7 fold.
For the compound `CNC(=O)c1cc(Oc2ccc(NC(=O)Nc3ccc(Cl)c(C(F)(F)F)c3)cc2)ccn1` [sorafenib, 4-[4-[[4-chloro-3-(trifluoromethyl)phenyl]carbamoylamino]phenoxy]-N-methyl-pyridine-2-carboxamide], in the experiment with MDA-MB231 cells, the “invasion with CM from treated cells” value is on record as “unable to invade Boyden Chambers”.
